Test results reported in article PMC10064330, “Reversible Dual-Covalent Molecular Locking of the 14-3-3/ERRγ Protein–Protein Interaction as a Molecular Glue Drug Discovery Approach” (Journal of the American Chemical Society, 2023).

Target: T1, 14-3-3γ/RND3 complex (Homo sapiens, UniProt P61587+P61981)
T1 construct: RND3 pS240, PDB 8BFC; made in house; host or cells: E. coli NiCo21 (DE3)
Assay: FA / TD-FA selectivity screen, RND3 client peptide
Format: binding
Conditions: 100 μM compound; for effect on RND3 binding to 14-3-3γ over time / effect on 14-3-3γ/RND3 complex at short time lengths: TD-FA
Method: Drugging the hub protein 14-3-3 raises the challenge of selectivity, given that 14-3-3 binds several hundred phosphoprotein partners (Figure 4a).[54] We hypothesized that the interplay of chemical reactivity, the topology, and functionality of the composite binding pocket shaped by 14-3-3 and the interaction partner drives selective stabilization of the 14-3-3/ERRγ complex.[53] To validate selectivity, molecular locks 5 and 10 were tested against a panel of nine 14-3-3 client peptides in an FA assay, and the SF100 was determined for each 14-3-3 PPI (Figure 4b and Figures S18–S20). This client panel contained a diverse representation of 14-3-3 binding proteins, differing for example in size and hydrophobicity of the +1 amino acid. Importantly, clients PKR and RND3, each containing a +1 Cys, were included in the panel.
To further assess off-target reactivity to +1 Cys-containing peptides, fragment 1, locks 5 and 10 were also screened against PKR and RND3 in the TD-FA assay.
Figure S20. KD and SF100 plot – selectivity screen. […]
nine different client peptides in presence of DMSO (negative control) or 100 µM of compound 1, 5 or 10 (based on binding curves in Figure S19). Also a bar plot representation of stabilization factor (SF100) of compounds 1, 5 and 10 for each of these peptides (bottom plot).
(1 picture or pasted object on this page, not shown here)
Experimental Section Biophysical Assays
14-3-3γ protein expression (FA, TSA, MS assays)
A pPROEX HTb expression vector encoding the human 14-3-3 protein gamma (14-3-3γ) with a N-terminal his6-tag was transformed by heat shock into NiCo21 (DE3) competent cells. Single colonies were cultured in 50 mL LB medium (100 µg/mL ampicillin). After overnight incubation at 37 °C, cultures were transferred to 2 L TB media (100 µg/mL ampicillin, 1 mM MgCl2) and incubated at 37 °C until an OD600 nm of 0.8 -1.2 was reached. Protein expression was then induced with 0.4 mM isopropyl-β-d-thiogalactoside (IPTG), and cultures were incubated overnight at 18 °C. Cells were harvested by centrifugation (8600 rpm, 20 minu tes, 4 °C) and resuspended in lysis buffer (50 mM Hepes, pH 8.0, 300 mM NaCl, 12.5 mM imidazole, 5 mM MgCl2, 2 mM βME) containing cOmplete™ EDTA-free Protease Inhibitor Cocktail tablets (1 tablet/100 ml lysate) and benzonase ( 5 µl/100 ml). After lysis using a C3 Emulsiflex-C3 homogenizer (Avestin), the cell lysate was cleared by centrifugation (20000 rpm, 30 minutes, 4 °C) and purified using Ni2+-affinity chromatography (Ni -NTA superflow cartridges, Qiagen). Typically two 5 mL columns (flow 5 mL/min) were use d for a 2 L culture in which the lysate was loaded on the column , washed with 10 CV wash buffer (50 mM Hepes, pH 8.0, 300 mM NaCl, 25 mM imidazole, 2 mM βME), and eluted in several fractions (2-4 CV) of elution buffer (50 mM Hepes, pH 8.0, 300 mM NaCl, 250 mM imidazole, 2 mM βME). Fractions containing the 14 -3-3 protein were combined and dialyzed into 25 mM HEPES pH 8.0, 100 mM NaCl, 10 mM MgCl2, 500 µM TCEP. Finally, the protein was concentrated to ∼60 mg/mL, analyzed Q-Tof LC/MS, and aliquots were flash-frozen for storage at −80 °C.
14-3-3σΔc C38N protein expression (Crystallography)
A pPROEX HTb expression vector encoding the human 14-3-3 protein sigma truncated after T231 (14-3-3σΔc), mutated C38N, and containing a N-terminal his6-tag was transformed by heat shock into NiCo21 (DE3) competent cells. Single colonies were cultured in 50 mL LB medium (100 µg/mL ampicillin). After overnight incubation at 37 °C, cultures were transferred to 2 L TB media (100 µg/mL ampicillin, 1 mM MgCl2) and incubated at 37 °C until an OD600 nm of 0.8-1.2 was reached. Protein expression was then induced with 0.4 mM isopropyl-β-d-thiogalactoside (IPTG), and cultures were incubated overnight at 18 °C. Cells were harvested by centrifugation (8600 rpm, 20 minutes, 4 °C) and resuspended in lysis buffer (50 mM Hepes, pH 8.0, 300 mM NaCl, 12.5 mM […]

T1 sequence (P61981 whole entry, other chains not shown): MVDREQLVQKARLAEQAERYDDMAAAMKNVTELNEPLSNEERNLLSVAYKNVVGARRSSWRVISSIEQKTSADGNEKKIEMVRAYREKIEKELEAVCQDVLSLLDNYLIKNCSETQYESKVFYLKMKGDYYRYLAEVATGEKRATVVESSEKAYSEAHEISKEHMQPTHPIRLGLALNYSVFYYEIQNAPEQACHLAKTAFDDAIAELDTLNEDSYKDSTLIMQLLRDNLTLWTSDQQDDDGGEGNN

Row | Compound | effect on RND3 binding to 14-3-3γ over time | effect on 14-3-3γ/RND3 complex at short time lengths | SF100 (RND3 peptide)
1 | CN(C)CCSSCCN(C)C(=O)c1cccc(F)c1 [compound 1, reference compound] | remains an inhibitor | immediate destabilization | –
2 | CN(C)CCSSCCN(C)C(=O)c1ccc(C=O)c(F)c1 [compound 5] | – | immediate destabilization | –
3 | CN(C)CCSSCCN(C)C(=O)c1cc(Br)cc(C=O)c1 [compound 10] | enhancement in RND3 binding | immediate destabilization | ~7.9
